Results on 1 compound are retold here after patent publication US10143638B2, “Method of treating skin with ingenol mebutate” (LEO Laboratories Limited, priority 2009, dated 2018).

Structures are written as SMILES.

Format in all cases: cell-based, human
For assay [1], the system named is HAS3. The experiment in a line: HAS3 gene expression by dermal fibroblasts (qPCR). An excerpt:
(§1) A normal adult skin biopsy (6 mm) was obtained (n=1), with informed consent, from an individual attending the Oral Surgery Clinic, School of Dentistry, Wales College of Medicine, Cardiff. Following the application of a local anaesthetic, the dermal biopsy was collected and adult dermal fibroblast cultures established by single cell suspension technique, following enzymic degradation of the specimen. This technique has previously been reliably used to establish viable primary cultures of both oral and dermal fibroblasts in vitro (Cook et al, 2000; Stephens et al, 2001; 2003). Dermal fibroblasts were cultured in Fibroblast-Serum Containing Medium, containing Dulbecco's Modified Eagle's Medium (DMEM), supplemented with L-glutamine (2 mM), antibiotics (100 U/ml) penicillin G sodium, […] streptomycin sulphate and 0.25 μg/ml amphotericin B) and 10% foetal calf serum (all purchased from Invitrogen Ltd., Paisley, U.K.). Dermal fibroblast cultures were maintained at 37° C., in a 5% CO2/95% air atmosphere, with the culture medium being changed every 2-3 days. Dermal fibroblasts were used between) passage 7-17, for all experiments.
(§2) Following trypsinization, dermal fibroblasts were seeded in 24-well tissue culture plates, in PEP005-free, Fibroblast-Serum Containing Medium (1 ml), at a cell density of 2.5×10^4 cell/well. Dermal fibroblasts were maintained at 37° C., in a 5% CO2/95% air atmosphere, overnight. At this stage, the culture medium was replaced with Fibroblast-Serum Containing Medium (600 μl), containing 0 μg/ml, 0.01 μg/ml, 0.1 μg/ml, 1 μg/ml, 10 μg/ml or 100 μg/ml PEP005, +/−TGF-β1 (10 ng/ml) (three culture wells per PEP005 concentration). A control was also established, consisting of cells in Fibroblast-Serum Containing Medium, containing 1% DMSO. The dermal fibroblasts were maintained at 37° C., in a 5% CO2/95% air atmosphere, for 24 h or 72 h, prior to washing in PBS (3×1 ml) and Trizol® Reagent (250 μl) added to the cells, for 5 min at room temperature, to induce cell lysis. RNA was extracted by the phenol-chloroform method, as described above, while a cDNA library was generated via random hexamer RT, as described above. RNA (1 μg) was added to 100 µM random hexamer (1 μl), 5×RT Buffer (4 μl), 2.5 mM Deoxynucleoside Triphosphates (dNTPs, 5 μl), 2 μl DTT and Nuclease-Free Water, were added to the reaction (total volume, 20 μl). To denature the RNA, reaction tubes were placed in a GeneAmp PCR System 9700 (Applied Biosystems, Cheshire, U.K.) and heated for 5 min/95° C., prior to cooling to 4° C. Superscript (1 μl) and RNAsin® Ribonuclease Inhibitor (1 μl, Promega, Hampshire, U.K.) were added to each tube, and the tubes subjected to […] at 20° C. for 10 min, 42° C. for 1 h and 95° C. for 5 min, prior to storage at 4° C., until required. As a negative control, RT was also performed, with Nuclease-Free Water replacing the RNA sample.
(§3) qPCR was performed, as described above, with the probe and primers for HAS1, HAS2 and HAS3 (target genes) and the 18s ribosomal RNA (reference gene), designed and supplied by Applied Biosystems. PCR was performed in a final volume of 20 μl/sample, with each reaction mix consisting of cDNA (1 μl), target gene primers and probe (1 μl), Taqman® FAST Universal PCR Master Mix (10 μl, Applied Biosystems), and Nuclease-Free Water (8 μl). PCR amplification was performed, using an initial cycle of 95° C. for 1 s, followed by 40 cycles of 60° C. for 20 s. A cDNA-free control was also included. Again, the comparative CT method was used for relative quantification of gene expression. Each experiment was performed on three separate occasions.
Background: Quantitative PCR measures a nucleic acid by following its amplification.

Assay [2] deals with dermal fibroblasts. Put plainly: Hyaluronan pericellular coat formation by dermal fibroblasts (particle exclusion assay).
From the text: as §1
Following trypsinization, dermal fibroblasts were seeded in 53 mm bacteriological grade culture dishes (VWR International Ltd., Leicestershire, U.K.), in PEP005-free, Fibroblast-Serum Containing Medium (2 ml), at a density of 7×10^4 cell/dish. Dermal fibroblasts were maintained at 37° C., in a 5% CO2/95% air atmosphere, overnight, prior to washing in PBS (2×2 ml) and maintenance in serum-free, Fibroblast-Serum Containing Medium (2 ml), containing 0 μg/ml, 0.01 μg/ml, 0.1 μg/ml, 1 μg/ml, 10 μg/ml or 100 μg/ml PEP005, +/−TGF-β1 (10 ng/ml) (three culture dishes per PEP005 concentration). A control was also established, consisting of cells in serum-free, Fibroblast-Serum Containing Medium, containing 1% DMSO. The dermal fibroblasts were maintained at 37° C., in a 5% CO2/95% air atmosphere, for 24 h or 72 h. At 24 h and 72 h, the culture dishes were treated with formalized horse blood erythrocytes (TCS Biosciences Ltd., Buckinghamshire, U.K.). The formalized horse blood erythrocytes were washed in PBS, to remove sodium azide (3×20 ml) and centrifuged at 100 g/7 min, at 4° C. The erythrocyte cell pellet obtained was re-suspended in serum-free, Fibroblast-Serum Containing Medium, to a density of 1×10^8 cells/ml. Aliquots of the erythrocyte cell suspension (500 μl) were supplemented to each culture dish and the dishes agitated, prior to maintenance at 37° C., in a 5% CO2/95% air atmosphere, for 15 min. Zones of erythrocyte exclusion were visualized by light microscopy, using a Zeiss Axiovery 135 Inverted Microscope (Carl Zeiss Ltd., Hertfordshire, U.K.), with a Hamamatsun C5985 chilled CCD camera (Hamamatsu Photonics U.K. Ltd., Hertfordshire, U.K.) and using Openlab Software 3.0.8 (Improvision Ltd., Warwickshire, U.K.). Each experiment was performed on three separate occasions.

Assay [3] deals with HAS2. Put plainly: HAS2 gene expression by dermal fibroblasts (qPCR). Particulars: non-significant (p>0.05).
From the text: as §1, §2, §3

Assay [4] concerns HAS1. The experiment in a line: HAS1 gene expression by dermal fibroblasts (qPCR).
From the text: as §1, §2, §3

Consider `C/C=C(/C)C(=O)O[C@H]1C(C)=C[C@]23C(=O)[C@@H](C=C(CO)[C@@H](O)[C@]12O)[C@H]1[C@@H](C[C@H]3C)C1(C)C` [PEP005, ingenol-3-angelate], for which the HAS3 expression result is reported as “no significant effects” in assay [1] (PEP005 0.01-100 μg/ml plus TGF-β1 (10 ng/ml), 72 h (p>0.05)); “completely abolished” in assay [1] (PEP005 0.01-100 μg/ml, absence of TGF-β1, 24 h, non-significant (p>0.05)); “barely detectable levels” in assay [1] (PEP005 0.1-10 μg/ml plus TGF-β1 (10 ng/ml), 24 h, down-regulation, non-significant (p>0.05)). Further, the HAS3 gene expression result in assay [1] (PEP005 1-10 μg/ml, absence of TGF-β1, 72 h, non-significant (p>0.05)) is listed as “up-regulation”. Besides, the “changes in cellular morphology” value in assay [2] (PEP005 0.01-10 μg/ml plus TGF-β1 (10 ng/ml), 72 h) was “consistent with the presence of myofibroblasts”. Also, the “hyaluronan pericellular coat formation” value is given as “even further enhanced” in assay [2] (PEP005 0.01-10 μg/ml plus TGF-β1 (10 ng/ml), 72 h, compared to PEP005-free controls); “little pericellular coat formation” in assay [2] (PEP005-treated cultures, absence of TGF-β1, 24 h); “major synergistic effect” in assay [2] (PEP005 plus TGF-β1 (10 ng/ml), 24 h, compared to untreated controls and to PEP005 without TGF-β1). The “morphological changes in fibroblasts” value in assay [2] (PEP005 0.01-10 μg/ml, absence of TGF-β1, 72 h) is reported as “consistent with the presence of myofibroblasts”. In addition, the “hyaluronan pericellular coat size” value in assay [2] (PEP005 0.01-10 μg/ml, absence of TGF-β1, 72 h, compared to PEP005-free controls) is on record as “increase pericellular coat size”. Moreover, the HAS2 gene expression entry in assay [3] (PEP005 0.01-100 μg/ml plus TGF-β1 (10 ng/ml), 72 h) is “general down-regulation”; in assay [3] (PEP005 0.1-10 μg/ml, absence of TGF-β1, 72 h), “major up-regulation”. Also, the HAS2 expression result in assay [3] (PEP005 0.1-10 μg/ml plus TGF-β1 (10 ng/ml), 24 h) is given as “up-regulation”; in assay [3] (PEP005 0.1-10 μg/ml, absence of TGF-β1, 24 h), “stimulatory effect”. Moreover, the HAS1 expression entry in assay [4] (PEP005 0.01-100 μg/ml plus TGF-β1 (10 ng/ml), 24 h, p<0.05 at 0.01 μg/ml, p<0.01 at 100 μg/ml) is on record as “general down-regulation”; in assay [4] (PEP005 0.01-100 μg/ml plus TGF-β1 (10 ng/ml), 72 h, non-significant (p>0.05)), “general down-regulation”; in assay [4] (PEP005, absence of TGF-β1, 24 h) it was “no obvious effects”; in assay [4] (PEP005, absence of TGF-β1, 72 h), “no obvious effects”.
